# Results from paper PMC10653918, “Antibiotic that inhibits trans-translation blocks binding of EF-Tu to tmRNA but not to tRNA” (mBio, 2023).
# Like-named read-outs stand apart in the source and are kept apart here.
# What was measured:
# [1] = tested on: translation; test: In vitro translation assay (DHFR with stop codon, no tmRNA-SmpB); settings: DMSO control 100 ± 1
# [2] = tested on: EF-Tu•GTP (Escherichia coli MG1655 (pCA24N tufA, ASKA clone JW3301)); test: filter binding; settings: 10 mM Mg2+, 44 mM KH2PO4, 6 mM K2HPO4, 10 mM MgCl2, 50 µg/mL BSA, pH 5.5 (RNA-binding mix; 34 µL mix + 16 µL EF-Tu), 0.1 nM RNA, 15 s at room temperature
# [3] = target: E. coli EF-Tu•GTP (Escherichia coli, UniProt P0CE47); test: biochemical; assay type: binding
# [4] = target: EF-Tu•GTP R318N (Escherichia coli, UniProt P0CE47, R319N); test: MST binding assay, EF-Tu R318N mutant
# [5] = target: EF-Tu•GTP R318K (Escherichia coli, UniProt P0CE47, R319K); test: MST binding assay, EF-Tu R318K mutant
# [6] = tested on: trans-translation; test: In vitro trans-translation assay (tagging of DHFR from nonstop template with tmRNA-SmpB); settings: 10 µM compound; percentage of total DHFR in tagged DHFR band; DMSO control 90 ± 7
# [7] = target: EF-Tu•GTP E378A (Escherichia coli, UniProt P0CE47, E379A); test: MST binding assay, EF-Tu E378A mutant
# [8] = tested on: E. coli ∆tolC; test: microbe, parasite or virus in culture; assay type: cell-based; settings: Escherichia coli
# [9] = target: EF-Tu•GDP (Escherichia coli, UniProt P0CE47); test: MST binding assay, EF-Tu•GDP; design: species or system E. coli
# [10] = tested on: Francisella tularensis; settings: compared with tetracycline; cited from earlier work
# [11] = tested on: B. anthracis vegetative cells, germinants, and spores; settings: in vitro and after ex vivo infection of macrophages; cited from earlier work
# [12] = target: EF-Tu•GTP H319A (Escherichia coli, UniProt P0CE47, H320A); test: MST binding assay, EF-Tu H319A mutant
# [13] = no KKL-55, 3'-alanylated with AlaRS
compound,measurement,setting,value
"O=C(N[C@H](CO)[C@H](O)c1ccc([N+](=O)[O-])cc1)C(Cl)Cl [chlor, chloramphenicol, reference compound]",translation efficiency ± SD,[1]; 100 µM compound,5 ± 3%
Ala-tmRNA,Kd,"[2]; 25 µM KKL-55 (substantially reduced, no saturation), 3'-alanylated with AlaRS",> 10000 nM
same,Kd,[2]; [13],750 nM
"O=C(Nc1nnc(-c2ccc(F)cc2)o1)c1ccc(Cl)cc1 [KKL-35, reference compound]",binding to EF-Tu,[3],No binding
CCCn1nnnc1NC(=O)c1cccc(Cl)c1 [KKL-55],Kd,[4],> 20000 nM
same,Kd,[5],2600 nM
same,tagging efficiency ± SD,[6],30 ± 2%
same,Kd,[3],2000 nM
same,Kd,[7],2600 ± 200 nM
same,Kd,"[7]; MST, E378A EF-Tu•GTP",little effect on binding affinity
same,MIC,[8],2.3 µM
same,Kd,[9],1600 ± 20 nM
same,MIC,[10],comparable to that of tetracycline
same,translation efficiency ± SD,[1]; 100 µM compound,102 ± 2%
same,bactericidal activity,[11],bactericidal
same,Kd,[12],2400 ± 100 nM
same,Kd,"[12]; MST, H319A EF-Tu•GTP",little impact on binding
O=C(CCCCC1SCC2NC(=O)NC21)NCCn1nnnc1NC(=O)c1cccc(Cl)c1 (centres unmarked) [KKL-201],tagging efficiency ± SD,[6],42 ± 2%
same,translation efficiency ± SD,[1]; 10 µM compound,99 ± 6%
Ala-tRNAAla,Kd,[2]; [13],280 nM
